The target in one data set is T1, hNPR-A (Homo sapiens, UniProt P16066).
T1 sequence (P16066 33-1061): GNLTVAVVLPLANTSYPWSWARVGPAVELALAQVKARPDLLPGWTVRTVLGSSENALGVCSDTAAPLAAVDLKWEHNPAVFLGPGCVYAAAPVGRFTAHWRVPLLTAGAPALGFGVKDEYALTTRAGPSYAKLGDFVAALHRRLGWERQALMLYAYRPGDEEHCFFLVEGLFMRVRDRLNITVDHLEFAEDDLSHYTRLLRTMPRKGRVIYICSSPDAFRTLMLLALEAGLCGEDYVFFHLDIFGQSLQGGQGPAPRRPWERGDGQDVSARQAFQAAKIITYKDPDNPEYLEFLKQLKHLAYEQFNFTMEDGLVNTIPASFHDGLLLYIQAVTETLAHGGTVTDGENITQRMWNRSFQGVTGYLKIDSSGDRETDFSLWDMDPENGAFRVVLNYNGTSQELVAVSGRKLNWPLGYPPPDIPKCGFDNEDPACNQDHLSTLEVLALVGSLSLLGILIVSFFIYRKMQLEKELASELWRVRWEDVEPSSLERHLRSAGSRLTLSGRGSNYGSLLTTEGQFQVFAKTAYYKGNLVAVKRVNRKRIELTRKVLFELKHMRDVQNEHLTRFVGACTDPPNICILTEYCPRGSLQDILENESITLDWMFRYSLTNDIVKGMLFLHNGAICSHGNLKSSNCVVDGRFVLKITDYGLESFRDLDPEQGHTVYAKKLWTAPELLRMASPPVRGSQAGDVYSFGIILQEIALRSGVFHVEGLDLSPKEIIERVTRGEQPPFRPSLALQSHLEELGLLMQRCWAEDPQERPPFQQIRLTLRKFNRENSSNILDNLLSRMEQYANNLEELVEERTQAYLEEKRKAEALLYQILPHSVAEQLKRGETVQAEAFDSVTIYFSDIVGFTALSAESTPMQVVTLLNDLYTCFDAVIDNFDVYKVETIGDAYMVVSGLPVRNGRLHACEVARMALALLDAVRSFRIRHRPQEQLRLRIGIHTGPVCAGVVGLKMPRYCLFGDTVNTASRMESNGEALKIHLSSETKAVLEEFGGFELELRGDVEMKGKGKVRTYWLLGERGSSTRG
Put plainly: Binding affinity for hNPR-A (competitive displacement of I^125 labeled wild-type ANF).

Data set [1] deals with T2, Human endopeptidase 24.11 (hNEP) (Homo sapiens, UniProt P08473). Put plainly: Degradation of ANF variants by human NEP, half-life by HPLC (Example 22).
T2 sequence (P08473 whole entry): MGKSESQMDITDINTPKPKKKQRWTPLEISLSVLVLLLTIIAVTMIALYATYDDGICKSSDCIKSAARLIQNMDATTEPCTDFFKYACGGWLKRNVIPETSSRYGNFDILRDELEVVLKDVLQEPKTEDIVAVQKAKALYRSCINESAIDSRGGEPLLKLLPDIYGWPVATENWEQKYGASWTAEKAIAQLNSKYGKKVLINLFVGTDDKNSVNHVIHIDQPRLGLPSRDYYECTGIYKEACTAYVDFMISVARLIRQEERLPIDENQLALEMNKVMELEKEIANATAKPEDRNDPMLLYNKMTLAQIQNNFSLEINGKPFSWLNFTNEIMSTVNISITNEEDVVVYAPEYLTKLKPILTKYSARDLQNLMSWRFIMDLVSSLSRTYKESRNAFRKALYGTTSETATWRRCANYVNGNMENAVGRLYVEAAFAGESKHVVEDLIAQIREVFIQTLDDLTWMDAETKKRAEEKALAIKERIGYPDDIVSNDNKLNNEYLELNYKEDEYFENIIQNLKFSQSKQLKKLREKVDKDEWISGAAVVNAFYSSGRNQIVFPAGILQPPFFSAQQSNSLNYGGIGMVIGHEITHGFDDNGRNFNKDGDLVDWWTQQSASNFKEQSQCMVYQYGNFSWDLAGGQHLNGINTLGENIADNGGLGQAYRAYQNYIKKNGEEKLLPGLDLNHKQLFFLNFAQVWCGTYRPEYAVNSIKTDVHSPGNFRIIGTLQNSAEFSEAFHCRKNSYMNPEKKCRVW
Protocol: (§1) The half-life of various ANF variants was measured according to the following procedure.
(§2) ANF Solution: An accurately weighed amount of ANF or variant thereof was diluted with HEPES buffer (5 ml of 1M HEPES Buffer and 0.1 ml of Tween 20 diluted to a 100 ml volume with DI water) to make a 0.5 mg/ml solution.
(§3) hNEP/HEPES Solution: 75 μl of a 1 mg/ml solution of hNEP (see U.S. Pat. No. 4,960,700) is dissolved in 992.5 μl of HEPES buffer (as described above) and vortex mixed. The resulting mixture is stored in a silylated Eppendorf tube and periodically checked for activity against an ANF peptide standard.
(§4) Assay conditions: 150 μl of an ANF solution in the HEPES buffer is diluted with 820 μl HEPES buffer and vortex mixed (1 sec). Careful note of the time is taken as 30 μl of the hNEP/HEPES solution is added and the solution is vortex mixed for 1 sec. and analyzed by periodic removal of constant volume aliquots by the HPLC autosampler. A 2.5 cm×50 cm, C-18 reversed-phase column (15 micron, 300Å]) was used and elution was achieved by using a shallow gradient of increasing acetonitrile. The elution conditions consisted of a 10% to 50% acetonitrile (containing 0.1% TFA) gradient at 0.5% min.^-1. The aqueous phase was 0.1% TFA in water. The peak area of the ANP peptide is recorded at these periodic intervals and a half-life is determined from these values.
In a further data set the target is T3, hNPR-C (Homo sapiens, UniProt P17342).
T3 sequence (P17342 27-541): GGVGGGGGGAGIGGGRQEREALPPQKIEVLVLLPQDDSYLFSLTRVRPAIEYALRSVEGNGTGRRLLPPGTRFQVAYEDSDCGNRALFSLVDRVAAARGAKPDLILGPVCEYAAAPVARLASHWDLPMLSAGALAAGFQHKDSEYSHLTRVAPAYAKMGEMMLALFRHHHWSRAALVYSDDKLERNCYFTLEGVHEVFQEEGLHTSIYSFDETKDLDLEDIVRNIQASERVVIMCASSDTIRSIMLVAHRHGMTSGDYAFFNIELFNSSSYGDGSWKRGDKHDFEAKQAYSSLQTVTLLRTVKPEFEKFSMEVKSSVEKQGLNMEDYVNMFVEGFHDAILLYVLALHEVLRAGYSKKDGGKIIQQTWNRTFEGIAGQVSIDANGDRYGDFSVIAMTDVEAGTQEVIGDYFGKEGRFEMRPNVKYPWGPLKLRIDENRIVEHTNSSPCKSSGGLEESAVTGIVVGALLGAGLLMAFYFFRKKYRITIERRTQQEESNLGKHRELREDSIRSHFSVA
In words: Binding affinity for clearance receptor hNPR-C. The source says:
For assay systems to measure binding of hANF and the compounds of this invention to hNPR-C see: Schank, D. B., et al., Biochem. Biophys. Res. Comm. 127:433-442 (1985); Scarborough, R. M., J. Biol. Chem. 261:12960-12964 and WO 90/01940.

In data set [2] the target is T2, Human endopeptidase 24.11 (hNEP). In words: in vitro. As to conditions: isolated enzyme.
Protocol: as §1, §2, §3, §4

Where two headings read alike, the source gives them in different places. Bridge positions count the residues as written; N and C are the ends. Square brackets hold non-standard residues; d marks the D form. Peptide text beside a SMILES is read from it. ξ: configuration not given here. ξPhg = NC(C(=O)O)c1ccccc1; Mpa = O=C(O)CCS

In the case of `CC[C@H](C)[C@@H]1NC(=O)[C@H](CCCNC(=N)N)NC(=O)[C@H](CC(=O)O)NC(=O)[C@H]([C@@H](C)CC)NC(=O)[C@H](CCCNC(=N)N)NC(=O)CNC(=O)CNC(=O)[C@H](Cc2ccccc2)NC(=O)[C@@H](NC(=O)[C@H](CO)NC(=O)[C@H](CO)NC(=O)[C@H](CCCNC(=N)N)NC(=O)[C@H](CCCNC(=N)N)NC(=O)[C@H](CC(C)C)NC(=O)[C@H](CO)NC(=O)[C@H](CCCNC(=N)N)NC(=O)[C@@H]2CCCN2C(=O)[C@H](C)NC(=O)[C@@H](N)[C@@H](C)O)CSSC[C@@H](C(=O)N[C@@H](CC(N)=O)C(=O)N[C@@H](CO)C(=O)N[C@@H](Cc2ccccc2)C(=O)N[C@@H](CCCNC(=N)N)C(=O)N[C@@H](Cc2ccc(O)cc2)C(=O)O)NC(=O)CNC(=O)[C@H](CC(C)C)NC(=O)CNC(=O)[C@H](CO)NC(=O)[C@H](CCC(N)=O)NC(=O)[C@H](C)NC(=O)[C@H](CCCNC(=N)N)NC1=O` [ANF23] (H-TAPRSLRRSSCFGGRIDRIRAQSGLGCNSFRY-OH; disulfide 11-27), the results for the IC50 at hNPR-A and at hNPR-C were 44 pM and 4190 pM, respectively. The “Half-Life” value in data set [1] (FIG. 6: ANF variants 0.5 mg/ml, endopeptidase 11.24 (NEP) 0.225 mg/ml) worked out at 12.3 h.
Regarding `CC[C@H](C)[C@@H]1NC(=O)[C@H](CCCNC(=N)N)NC(=O)[C@H](CC(=O)O)NC(=O)[C@H]([C@@H](C)CC)NC(=O)[C@H](CC(=O)O)NC(=O)CNC(=O)[C@H](CCCNC(=N)N)NC(=O)[C@H](Cc2ccccc2)NC(=O)[C@@H](NC(=O)[C@H](CO)NC(=O)[C@H](CO)NC(=O)[C@H](CCCNC(=N)N)NC(=O)[C@H](CCCNC(=N)N)NC(=O)[C@H](CC(C)C)NC(=O)[C@@H](N)CO)CSSC[C@@H](C(=O)N[C@@H](CC(N)=O)C(=O)N[C@@H](CO)C(=O)N[C@@H](Cc2ccccc2)C(=O)N[C@@H](CCCNC(=N)N)C(=O)N[C@@H](Cc2ccc(O)cc2)C(=O)O)NC(=O)CNC(=O)[C@H](CC(C)C)NC(=O)CNC(=O)[C@H](CO)NC(=O)[C@H](CCC(N)=O)NC(=O)[C@H](C)NC(=O)[C@H](CCCNC(=N)N)NC1=O` [ANF28] (H-SLRRSSCFRGDIDRIRAQSGLGCNSFRY-OH; disulfide 7-23), the half-life at 32 nM/ml in data set [1] (human) is 9.52 h.
Compound `CC[C@H](C)[C@@H]1NC(=O)[C@H](CCCNC(=N)N)NC(=O)CNC(=O)CNC(=O)[C@H](Cc2ccccc2)NC(=O)[C@@H](C(C)C)NC(=O)[C@@H](NC(=O)[C@H](CO)NC(=O)[C@@H](N)CO)CSSC[C@@H](C(=O)N[C@@H](Cc2ccccc2)C(=O)N[C@@H](CCCNC(=N)N)C(=O)O)NC(=O)[C@H]([C@@H](C)CC)NC(=O)[C@H](CCCNC(=N)N)NC(=O)[C@H](CC(=O)O)NC1=O` [ANF40] (H-SSC[dV]FGGRIDRICFR-OH; disulfide 3-13 (inferred); N-terminus and C-terminus assumed) came in with a half-life at 0.5 mg/ml in data set [1] (human) of 9.95 h.
Consider `CC[C@H](C)[C@@H]1NC(=O)[C@H](CCCNC(=N)N)NC(=O)[C@H](CC(=O)O)NC(=O)[C@H]([C@@H](C)CC)NC(=O)[C@H](CC(=O)O)NC(=O)CNC(=O)[C@@H](C)NC(=O)[C@H](Cc2ccccc2)NC(=O)CCSSC[C@@H](C(=O)N[C@@H](CC(N)=O)C(=O)N[C@@H](CO)C(=O)N[C@@H](Cc2ccccc2)C(=O)N[C@@H](CCCNC(=N)N)C(=O)N[C@@H](Cc2ccc(O)cc2)C(=O)O)NC(=O)CNC(=O)[C@H](CC(C)C)NC(=O)CNC(=O)[C@H](CO)NC(=O)[C@H](CCC(N)=O)NC(=O)[C@H](C)NC(=O)[C@H](CCCNC(=N)N)NC1=O` [ANF92] ([Mpa]F[dA]GDIDRIRAQSGLGCNSFRY-OH; disulfide 1-17), for which, in data set [2], the half-life at 32 nM/ml was determined as 1.77 h.
As for `CC[C@H](C)[C@@H]1NC(=O)[C@H](CCCNC(=N)N)NC(=O)[C@H](CC(=O)O)NC(=O)[C@H]([C@@H](C)CC)NC(=O)[C@H](CO)NC(=O)CNC(=O)[C@H]([C@@H](C)O)NC(=O)C(c2ccccc2)NC(=O)[C@@H](NC(=O)[C@H](CO)NC(=O)[C@H](CO)NC(=O)[C@H](CCCNC(=N)N)NC(=O)[C@H](CCCNC(=N)N)NC(=O)[C@H](CC(C)C)NC(=O)[C@@H](N)CO)CSSC[C@@H](C(=O)N[C@@H](CC(N)=O)C(=O)N[C@@H](CO)C(=O)N[C@@H](Cc2ccccc2)C(=O)N[C@@H](CCCNC(=N)N)C(=O)N[C@@H](Cc2ccc(O)cc2)C(=O)O)NC(=O)CNC(=O)[C@H](CC(C)C)NC(=O)CNC(=O)[C@H](CO)NC(=O)[C@H](CCC(N)=O)NC(=O)[C@H](C)NC(=O)[C@H](CCCNC(=N)N)NC1=O` (some centres unmarked) [ANF100-1] (H-SLRRSSC[ξPhg]TGSIDRIRAQSGLGCNSFRY-OH; disulfide 7-23), the IC50 at hNPR-A (Table I, read-out: Binding Affinity IC50 (pM) hNPR-A) is 187 pM; at hNPR-C (Table I, read-out: Binding Affinity IC50 (pM) hNPR-C) it was 3.23e+06 pM.
